Key:
[1] = molecular target: T1, PI3K (p110α/p85α) (Homo sapiens, UniProt P42336); assay: PI3K activity assay (ADP Hunter Plus); type: biochemical; conditions: read-out: IC50, PI3K inhibition
T1 construct: purchased Carna Biosciences 07CBS-0402A
Experimental: The kinase activity was measured by using the commercial ADP Hunter™ Plus assay available from DiscoveRx (#33-016), which is a homogeneous assay to measure the accumulation of ADP, a universal product of kinase activity. […] Reaction was carried out for 1 hour at 25° C. Reagent A and B were sequentially added to the wells and plates were incubated for 30 min at 37° C. […] Values were normalized against the control activity included for each enzyme (i.e., 100% PI3 kinase activity, without compound). These values were plot against the inhibitor concentration and were fit to a sigmoid dose-response curve by using the Graphad software.

[2] = system: pre-brown adipocytes; assay: Immortalized neonatal (pre-)brown adipocytes treated with PI3K inhibitors: phospho-Akt and Ucp1 mRNA; type: cell-based, mice; conditions: 4 h
Experimental: Pre-brown adiposcytes were treated with Compound A or with the indicated PI3KI for 4 h. After this time, extracts were prepared for analysis of phospho-Akt (upper panels) or for analysis of Ucp1 mRNA levels (lower panels).
Mouse Embryonic Fibroblasts (MEFs) were isolated at E13.5 as previously described^42. For insulin stimulation, primary MEFs were serum starved (0% FBS) for 12 h, followed by 60 min incubation with PBS and then stimulated with 1 μg/ml of insulin (Sigma) during 30 min. For oncogenic transformation, primary MEFs were retrovirally transduced with pLXSN-neo-E6 and either pWZL-blast-middle-T (kindly provided by Jean Zhao, Dana-Farber Cancer Institute, Boston) or pBABE-puro-EGFRL858R (kindly provided by William Sellers and Matthew Meyerson, Addgene plasmid #11012)^43. After the corresponding drug selection 20,000 cells were plated in 10 cm diameter plates, and 2 weeks later were fixed and stained with 20% Giemsa. Immortalized brown adipocyte cell lines were obtained from the interscapular BAT of 3-5 day-old neonates, treated with and cultured as previously described^33. For immortalization, cultures were retrovirally transduced with Large-T antigen (in vector pBABE-puro, kindly provided by James de Caprio, Dana Farber Cancer Institute, Boston). For the reprogramming of 3T3-L1 adipocytes into brownadipocytes, we followed the method previously reported^50. Briefly, 3T3-L1 cells were retrovirally transduced with pBABE-puro-Cebpb (kindly provided by Roger R. Gomis, IRB, Barcelona). After drug selection with puromycin, cells were grown to confluence and subsequently cultured for 48 h with “differentiation medium” (DMEM 10% FBS, 20 nM insulin, 1 nM T3, 1 μM rosiglitazone, 0.5 mM isobutylmethylxanthine, 125 nM indomethacin, 5 μM dexamethasone). After this, cells were exposed to “maintenance medium” (DMEM 10% FBS, 20 nM insulin, 1 nM T3) for 4 days. For the experiment shown in FIG. 4d, differentiated 3T3-L1/Cebpβ or non-differentiated neonatal immortalized brown adipocytes cultures were PBS washed and treated with “regular medium” (DMEM 10% FBS) containing 10 μM forskolin (Sigma) and/or or 1 μM Compound A for 4 h.
Immortalized brown adipocytes were obtained from the interscapular BAT of 3-5 day-old neonates and immortalized by retroviral transduction of Large-T antigen (in vector pBABE-puro, kindly provided by James de Caprio, Dana Farber Cancer Institute, Boston). […]
For RNA analyses, total RNA from pre-brown adipocytes was extracted using TRIZOL (Invitrogen). Reverse transcription was performed using random primers and Ready-To-Go™ You-Prime First-Strand Beads (GE Healthcare). Quantitative real time-PCR was performed using DNA Master Sybr Green I mix (Applied Biosystems) in an ABI PRISM 7700 thermocycler (Applied Biosystem). […]

[3] = system: 282 additional kinases including mTOR and DNAPK; assay: Inhibition of additional kinases (panel); type: biochemical
[4] = system: brown adipose tissue (BAT) of C57BL6 mice; assay: In vivo inhibition of PI3K: mRNA levels in BAT; conditions: 15 mg/kg by gavage, 6 h, C57BL6 males
Experimental: For in vitro assays Compound A was added at a concentration of 1 μM. For in vivo assays, Compound A″ was administered orally by gavage at a dose of 15 mg/kg. Mice were sacrificed 6 h after and tissues were extracted and analyzed. Treated mice were C57BL6 males, 3 months old.
Total RNA from tissues or fibroblasts was extracted using TRIZOL (Invitrogen). Reverse transcription was performed using random primers and Ready-To-Go™ You-Prime First-Strand Beads (GE Healthcare). Quantitative real time-PCR was performed using DNA Master Sybr Green I mix (Applied Biosystems) in an ABI PRISM 7700 thermocycler (Applied Biosystem). Primer sequences are described in Supp.

[5] = molecular target: PI3K isoform p1103 (Homo sapiens, UniProt P42338); assay: Inhibition of PI3K isoform p110β; type: biochemical
[6] = molecular target: PI3K isoform p110δ (Homo sapiens, UniProt O00329); assay: Inhibition of PI3K isoform p110δ; type: biochemical
[7] = molecular target: PI3K isoform p110γ (Homo sapiens, UniProt P48736); assay: Inhibition of PI3K isoform p110γ; type: biochemical
Sequence of PI3K isoform p110γ (P48736 whole entry, canonical isoform): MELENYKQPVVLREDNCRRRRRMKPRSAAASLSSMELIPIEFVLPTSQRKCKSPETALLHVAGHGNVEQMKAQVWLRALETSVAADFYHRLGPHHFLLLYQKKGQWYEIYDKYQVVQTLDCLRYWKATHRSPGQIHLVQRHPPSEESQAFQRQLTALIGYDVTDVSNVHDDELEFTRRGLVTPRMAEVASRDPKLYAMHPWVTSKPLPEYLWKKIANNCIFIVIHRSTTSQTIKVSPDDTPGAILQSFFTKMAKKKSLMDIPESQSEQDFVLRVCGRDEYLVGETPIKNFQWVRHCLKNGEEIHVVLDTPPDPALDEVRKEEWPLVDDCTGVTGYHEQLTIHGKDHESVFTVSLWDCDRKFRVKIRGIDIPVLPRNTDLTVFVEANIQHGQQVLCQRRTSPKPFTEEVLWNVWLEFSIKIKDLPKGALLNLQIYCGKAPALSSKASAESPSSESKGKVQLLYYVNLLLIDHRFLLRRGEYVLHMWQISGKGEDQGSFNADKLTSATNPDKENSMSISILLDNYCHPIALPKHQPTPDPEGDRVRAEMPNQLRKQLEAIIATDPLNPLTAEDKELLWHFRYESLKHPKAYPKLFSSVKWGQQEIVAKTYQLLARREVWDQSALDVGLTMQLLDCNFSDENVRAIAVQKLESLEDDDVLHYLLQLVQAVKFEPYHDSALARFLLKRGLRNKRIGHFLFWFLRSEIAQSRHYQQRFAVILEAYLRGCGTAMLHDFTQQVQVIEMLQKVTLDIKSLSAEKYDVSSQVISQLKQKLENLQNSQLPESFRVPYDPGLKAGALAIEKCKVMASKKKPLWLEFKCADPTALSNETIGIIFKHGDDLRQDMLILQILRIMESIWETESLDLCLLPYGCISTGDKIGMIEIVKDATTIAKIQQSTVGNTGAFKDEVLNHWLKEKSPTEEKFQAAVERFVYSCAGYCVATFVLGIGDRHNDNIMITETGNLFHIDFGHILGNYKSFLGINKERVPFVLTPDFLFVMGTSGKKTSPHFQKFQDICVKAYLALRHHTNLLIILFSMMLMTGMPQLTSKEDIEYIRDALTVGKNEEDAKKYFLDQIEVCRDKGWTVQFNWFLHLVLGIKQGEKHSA

Sequence of PI3K isoform p1103 (P42338 whole entry, canonical isoform): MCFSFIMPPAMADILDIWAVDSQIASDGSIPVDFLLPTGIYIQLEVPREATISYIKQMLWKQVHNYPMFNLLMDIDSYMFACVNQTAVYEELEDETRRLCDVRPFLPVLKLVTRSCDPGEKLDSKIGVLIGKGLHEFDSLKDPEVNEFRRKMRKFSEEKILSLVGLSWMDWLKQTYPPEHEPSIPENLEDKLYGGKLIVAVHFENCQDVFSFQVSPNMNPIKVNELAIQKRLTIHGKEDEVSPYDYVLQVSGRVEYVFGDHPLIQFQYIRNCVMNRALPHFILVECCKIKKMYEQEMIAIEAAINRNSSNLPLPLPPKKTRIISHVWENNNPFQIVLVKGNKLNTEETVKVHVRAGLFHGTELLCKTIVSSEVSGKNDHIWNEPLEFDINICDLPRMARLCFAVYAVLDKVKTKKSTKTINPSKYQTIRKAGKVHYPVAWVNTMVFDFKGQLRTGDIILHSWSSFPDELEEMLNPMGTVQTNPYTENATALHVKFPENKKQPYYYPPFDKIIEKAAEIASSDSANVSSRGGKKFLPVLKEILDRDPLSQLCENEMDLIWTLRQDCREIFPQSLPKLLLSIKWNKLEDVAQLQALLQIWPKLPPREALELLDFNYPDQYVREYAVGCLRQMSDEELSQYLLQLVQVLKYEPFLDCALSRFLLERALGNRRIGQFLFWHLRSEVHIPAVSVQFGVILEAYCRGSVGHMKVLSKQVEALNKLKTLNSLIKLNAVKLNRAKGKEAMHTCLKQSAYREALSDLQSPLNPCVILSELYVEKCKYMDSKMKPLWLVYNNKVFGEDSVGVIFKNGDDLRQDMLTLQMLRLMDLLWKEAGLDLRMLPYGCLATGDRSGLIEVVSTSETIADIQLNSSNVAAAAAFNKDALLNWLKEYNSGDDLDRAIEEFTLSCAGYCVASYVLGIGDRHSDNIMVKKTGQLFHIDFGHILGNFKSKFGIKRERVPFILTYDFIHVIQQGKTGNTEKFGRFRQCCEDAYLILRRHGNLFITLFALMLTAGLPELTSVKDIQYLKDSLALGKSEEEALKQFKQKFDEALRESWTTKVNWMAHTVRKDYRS
Sequence of PI3K isoform p1103 (P27986 whole entry partner, canonical isoform): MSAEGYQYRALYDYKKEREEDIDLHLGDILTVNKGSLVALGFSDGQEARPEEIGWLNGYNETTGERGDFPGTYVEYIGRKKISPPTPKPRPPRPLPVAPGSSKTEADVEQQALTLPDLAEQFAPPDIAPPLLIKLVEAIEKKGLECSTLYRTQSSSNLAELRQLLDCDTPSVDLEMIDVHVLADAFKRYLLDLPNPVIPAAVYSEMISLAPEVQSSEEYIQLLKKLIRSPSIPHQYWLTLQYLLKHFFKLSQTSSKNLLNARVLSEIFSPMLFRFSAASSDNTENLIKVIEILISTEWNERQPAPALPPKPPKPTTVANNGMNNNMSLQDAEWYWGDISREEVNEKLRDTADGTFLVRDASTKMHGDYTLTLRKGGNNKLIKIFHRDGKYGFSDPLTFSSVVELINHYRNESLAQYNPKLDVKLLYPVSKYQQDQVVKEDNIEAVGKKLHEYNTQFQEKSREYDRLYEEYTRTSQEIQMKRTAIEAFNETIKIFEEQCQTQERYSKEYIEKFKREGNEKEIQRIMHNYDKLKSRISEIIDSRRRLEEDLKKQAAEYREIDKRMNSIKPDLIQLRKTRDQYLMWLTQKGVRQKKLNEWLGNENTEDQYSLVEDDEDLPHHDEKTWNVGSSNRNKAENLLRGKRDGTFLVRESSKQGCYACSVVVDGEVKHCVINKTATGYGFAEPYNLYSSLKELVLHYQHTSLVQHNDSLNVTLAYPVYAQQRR
Sequence of PI3K isoform p110δ (O00329 whole entry, canonical isoform): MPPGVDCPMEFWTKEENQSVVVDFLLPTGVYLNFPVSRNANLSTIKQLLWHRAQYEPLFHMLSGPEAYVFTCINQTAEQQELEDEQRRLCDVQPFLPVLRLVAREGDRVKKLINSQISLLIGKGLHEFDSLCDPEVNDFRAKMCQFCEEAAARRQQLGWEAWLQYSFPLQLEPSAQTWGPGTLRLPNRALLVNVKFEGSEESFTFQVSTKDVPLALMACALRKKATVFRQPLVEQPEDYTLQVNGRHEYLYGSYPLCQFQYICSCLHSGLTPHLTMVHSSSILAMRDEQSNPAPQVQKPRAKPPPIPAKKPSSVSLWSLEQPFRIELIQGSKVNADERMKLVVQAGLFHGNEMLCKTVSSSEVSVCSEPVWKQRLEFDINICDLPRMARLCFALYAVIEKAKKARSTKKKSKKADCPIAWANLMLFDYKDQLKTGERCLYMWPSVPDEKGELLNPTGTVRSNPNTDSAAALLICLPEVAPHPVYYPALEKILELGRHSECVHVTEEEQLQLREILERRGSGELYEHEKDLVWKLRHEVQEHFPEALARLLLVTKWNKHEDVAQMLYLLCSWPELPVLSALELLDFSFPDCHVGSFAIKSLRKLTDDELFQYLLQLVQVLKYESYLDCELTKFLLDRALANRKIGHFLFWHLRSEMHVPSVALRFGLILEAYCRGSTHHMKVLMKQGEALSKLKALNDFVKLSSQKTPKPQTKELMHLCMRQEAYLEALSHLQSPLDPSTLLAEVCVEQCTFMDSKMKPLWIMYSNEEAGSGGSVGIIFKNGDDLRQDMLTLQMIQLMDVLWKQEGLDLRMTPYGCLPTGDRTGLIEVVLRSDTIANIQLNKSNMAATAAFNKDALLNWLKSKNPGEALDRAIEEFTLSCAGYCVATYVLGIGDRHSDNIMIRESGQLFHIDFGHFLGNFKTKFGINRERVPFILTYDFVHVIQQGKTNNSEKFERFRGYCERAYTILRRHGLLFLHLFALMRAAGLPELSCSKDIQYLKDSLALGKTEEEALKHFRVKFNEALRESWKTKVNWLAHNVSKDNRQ
Sequence of PI3K isoform p110δ (P27986 whole entry partner, canonical isoform): as the sequence (P27986 whole entry partner, canonical isoform) above
T1 sequence (P42336 whole entry): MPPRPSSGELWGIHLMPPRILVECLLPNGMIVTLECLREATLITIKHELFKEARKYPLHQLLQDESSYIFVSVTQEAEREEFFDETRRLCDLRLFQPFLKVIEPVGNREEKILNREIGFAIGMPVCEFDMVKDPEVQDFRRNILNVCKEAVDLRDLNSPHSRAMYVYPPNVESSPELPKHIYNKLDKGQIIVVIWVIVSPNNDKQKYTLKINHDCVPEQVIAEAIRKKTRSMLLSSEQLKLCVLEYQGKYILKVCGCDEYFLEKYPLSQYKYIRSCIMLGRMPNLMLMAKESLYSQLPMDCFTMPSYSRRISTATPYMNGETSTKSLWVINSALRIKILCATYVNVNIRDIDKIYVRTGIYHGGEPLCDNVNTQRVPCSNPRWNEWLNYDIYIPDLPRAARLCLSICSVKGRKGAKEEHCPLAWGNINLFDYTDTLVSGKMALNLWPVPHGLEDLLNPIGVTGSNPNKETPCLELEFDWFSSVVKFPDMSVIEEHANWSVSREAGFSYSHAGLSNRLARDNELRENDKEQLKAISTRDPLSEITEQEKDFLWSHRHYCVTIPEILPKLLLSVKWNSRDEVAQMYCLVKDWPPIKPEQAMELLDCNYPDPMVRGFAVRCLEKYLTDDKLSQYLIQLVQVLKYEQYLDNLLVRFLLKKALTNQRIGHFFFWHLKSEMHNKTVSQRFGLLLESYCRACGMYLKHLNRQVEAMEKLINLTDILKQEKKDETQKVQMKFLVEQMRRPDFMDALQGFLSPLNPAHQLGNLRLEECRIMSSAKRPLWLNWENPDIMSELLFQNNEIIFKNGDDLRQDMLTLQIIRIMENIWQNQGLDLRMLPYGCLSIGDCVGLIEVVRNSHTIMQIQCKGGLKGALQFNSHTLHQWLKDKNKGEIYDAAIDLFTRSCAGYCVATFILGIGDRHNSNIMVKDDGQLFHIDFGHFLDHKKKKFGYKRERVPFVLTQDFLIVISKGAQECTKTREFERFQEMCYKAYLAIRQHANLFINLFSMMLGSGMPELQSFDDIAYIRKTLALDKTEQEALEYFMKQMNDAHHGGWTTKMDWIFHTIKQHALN
T1 sequence (P27986 whole entry partner): as the sequence (P27986 whole entry partner, canonical isoform) above

## CS(=O)(=O)N1CCN(Cc2cn3c(Cl)c(-c4cnc(N)nc4)nc(N4CCOCC4)c3n2)CC1 [Compound A]
[1]
  IC50: 2.4 nM
[2]; 1 microM
  inhibition of the phosphorylation of Akt: measurable inhibition
[2]; 10-20 microM
  up-regulation of Ucp1 mRNA levels: 8-20 fold
[2]; 10 microM
  inhibition of the phosphorylation of Akt: complete inhibition
[2]; immortalized neonatal brown adipocytes (three independent lines), 1 μM
  expression of Ucp1: upregulated
[3]
  IC50: < 1000 nM
[4]
  Lcad mRNA in the BAT: significant upregulation
  Pgc1a mRNA in the BAT: significant upregulation
  Ucp1 mRNA in the BAT: significant upregulation
[5]
  Ki: > 100 nM
[6]
  Ki: 9.8 nM
[7]
  Ki: > 100 nM

From patent publication US9993554B2 (CENTRO NACIONAL DE INVESTIGACIONES ONCOLOGICAS (CNIO), priority 2010, dated 2018)
